Experimental data taken from US10533029B1, “Anticancer trans-diaminoplatinum(II) complexes of selenones” (KING FAHD UNIVERSITY OF PETROLEUM AND MINERALS, priority 2018, dated 2020).

Experiments:
[1] = test system: human cervical cancer HeLa cells; experiment: MTT in vitro cytotoxicity, HeLa; format: cell-based; conditions: for cytotoxicity compared to cisplatin: HeLa cells; for IC50: HeLa, 72 h incubation, read-out: IC50 values against HeLa
Protocol: (§1) Solutions of Pt(II) complexes of selenone 1-7 and cisplatin at concentrations of 1.0 μM, 5.0 μM, 10.0 μM, 25.0 μM, and 50.0 μM were prepared in Dulbecco modified eagle medium (DMEM). The human cervical cancer cell line HeLa and human breast cancer cell line MDA-231 were seeded and maintained in quadruplicate in a 96-well tissue culture plate at 5×10^4 cells per well in 200 μL of the same medium. The cancer cells were incubated for 24 hours before treatment. All compounds were dissolved in 50% DMSO. Therefore DMSO was used as a negative control. The final DMSO concentration, in each well, was less than 0.1%. The cancer cells were treated with platinum complexes of compounds 1-7 and cisplatin, and the resulting cultures were incubated for 72 h. The medium of wells was discarded and 100 μL DMEM containing (5 mg/mL) MTT (3-(4,5-dimethylthiazol-2-yl)-2,5-diphenyltetrazolium bromide) was added to each well and the cultures incubated in a CO2 incubator at 37° C. in the dark for 4 hrs. After incubation, a purple colored formazan (artificial chromogenic dye, a product of the reduction of water […] tetrazolium salts e.g., MTT by dehydrogenases and reductases) in the cells is produced and appeared as dark crystals in the bottom of the wells. The medium of culture was discarded from each well carefully to avoid disruption of the monolayer. Isopropanol (100 μL) was added in each well. The solution was thoroughly mixed in the wells to dissolve the formazan crystals which results in a purple solution. The absorbance of the 96-well plate was measured at 570 nm with Mithras 2LB943 multimode microplate reader against reagent blank.
(§2) In vitro cytotoxicity of the platinum complexes of compounds 1-7 and cisplatin it DMSO were evaluated by the MTT assay against two human cancer cells namely, human cervical cancer HeLa cells and human breast cancer MDA-231 cells. The results of cytotoxicity are expressed, in terms of IC50 and listed m Table 7. The survival of the cells as a function of concentration of the platinum complexes of compounds 1-7 are graphically presented in FIGS. 4A and 4B. […] Recently, the anticancer properties of some other platinum(II) complexes of heterocyclic selenones have been reported [Altoum et al J. Coord. Chem. 70 (2017) 1020-1031; and. Altoum et al. Polyhedron, 128, 2-8 (2017), 42].

[2] = test system: human breast cancer MDA-231 cells; experiment: MTT in vitro cytotoxicity, MDA-231; format: cell-based; conditions: for cytotoxicity compared to cisplatin: MDA-231 (MDA-321 [sic]), MTT; for IC50: MDA-231, MTT, 72 h incubation, read-out: IC50 values against MDA-231
Protocol: as §1, §2

[3] = test system: MCF7 cell line; experiment: MTT in vitro cytotoxicity, cell line MCF7; format: cell-based, human
[4] = test system: MCF7 cells; conditions: read-out: IC50, in vitro cytotoxicity against MCF7 cells, Mustafa (2015) and (2014); cited from earlier work

| Compound | cytotoxicity compared to cisplatin [1] | IC50 [1] [µM] | cytotoxicity compared to cisplatin [2] | IC50 [2] [µM] | cytotoxicity compared to cisplatin [3] | IC50 [4] [µM] |
| --- | --- | --- | --- | --- | --- | --- |
| N.N.NC(N)=[Se].NC(N)=[Se].O=[N+]([O-])[O-].O=[N+]([O-])[O-].[Pt+2] [Complex 1, [Pt(NH3)2(Seu)2](NO3)2] | enhanced cytotoxicity | 3.1 | enhanced cytotoxicity | 4.3 |  |  |
| CNC(=[Se])NC.CNC(=[Se])NC.N.N.O=[N+]([O-])[O-].O=[N+]([O-])[O-].[Pt+2] [Complex 2, [Pt(NH3)2(Me2Seu)2](NO3)2] | more cytotoxic than cisplatin | 2.3 |  | 7.4 | less active |  |
| N.N.O=[N+]([O-])[O-].O=[N+]([O-])[O-].[Pt+2].[Se]=C1NCCN1.[Se]=C1NCCN1 [Complex 3, [Pt(NH3)2(ImSe)2](NO3)2] | comparable cytotoxicity | 3.7 |  | 9.5 | less active |  |
| CCN1CCNC1=[Se].CCN1CCNC1=[Se].N.N.O=[N+]([O-])[O-].O=[N+]([O-])[O-].[Pt+2] [Complex 4, [Pt(NH3)2(EtImSe)2](NO3)2] | enhanced cytotoxicity | 2.1 | enhanced cytotoxicity | 4.4 |  |  |
| CCCN1CCNC1=[Se].CCCN1CCNC1=[Se].N.N.O=[N+]([O-])[O-].O=[N+]([O-])[O-].[Pt+2] [Complex 5, trans-[Pt(NH3)2(PrImSe)2](NO3)2] |  | 6.9 |  | 4.7 | greater cytotoxicity than cisplatin |  |
| CC(C)N1CCNC1=[Se].CC(C)N1CCNC1=[Se].N.N.O=[N+]([O-])[O-].O=[N+]([O-])[O-].[Pt+2] [Complex 6] | enhanced cytotoxicity | 3.1 | enhanced cytotoxicity | 5.7 |  |  |
| N.N.O=[N+]([O-])[O-].O=[N+]([O-])[O-].[Pt+2].[Se]=C1NCCCCN1.[Se]=C1NCCCCN1 [Complex 7, [Pt(NH3)2(DiapSe)2](NO3)2] |  | 5.4 |  | 5.3 |  |  |
| S=C1NCCCN1.S=C1NCCCN1.S=C1NCCCN1.S=C1NCCCN1.[Cl-].[Cl-].[Pt+2] [[Pt(Diaz)4]Cl2] |  |  |  |  |  | 19.1 |
| CCN1CCNC1=S.CCN1CCNC1=S.CCN1CCNC1=S.CCN1CCNC1=S.[Cl-].[Cl-].[Pt+2] [[Pt(EtImt)4]Cl2] |  |  |  |  |  | 11 |
| cis-(Pt(NH3)2Cl2) [Cisplatin, reference compound] |  | 3.6 |  | 6.3 |  |  |
